# PubChem BioAssay AID330 (DTP/NCI, 2004)
# Where “and” joins values, the source holds several entries; their conditions need not be identical. Equal entries are not always repeated. Inconclusive results and toxic doses are left out. Numbered stars: 1 amine (or outer) side, 2 acyl side, 3 side chain; on linkers, the order of the positions; unused ones are H or OH. Square brackets hold non-standard residues; d marks the D form. Peptide text beside a SMILES is read from it. * marks the point of attachment. X18 = CCC(=O)CC1CC(C)CC(C(=O)[*:2])N1[*:1]; X17 = CCCCCCCCC(C)C(=O)*; Aib = CC(C)(N)C(=O)O; X19 = CC(CN(C)CCO)N*
# System: P388 leukemia ip, CD2F1 mice, survival T/C
# Test: NCI In Vivo Anticancer Drug Screen. Data for tumor model P388 Leukemia (intraperitoneal) in CD2F1 (CDF1) mice
# Conditions: endpoint: median survival time, higher = longer survival
# Outline: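 Mice carrying the transplanted tumor received test compound or vehicle. Survival was recorded in each group, and the value is the treated-group measurement divided by that of the vehicle-treated control group.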
# [1] = dose: 50.0 mg/kg/injection, schedule: Q01DX009 (ip), vehicle: Klucel (hydroxypropylcellulose) (HPC)
# [2] = dose: 100.0 mg/kg/injection, schedule: Q01DX009 (ip), vehicle: Klucel (hydroxypropylcellulose) (HPC)
# [3] = dose: 200.0 mg/kg/injection, schedule: Q01DX009 (ip), vehicle: Klucel (hydroxypropylcellulose) (HPC)
# [4] = dose: 100.0 mg/kg/injection, schedule: Q01DX001 (ip), vehicle: saline
# [5] = dose: 200.0 mg/kg/injection, schedule: Q01DX001 (ip), vehicle: saline
# [6] = dose: 400.0 mg/kg/injection, schedule: Q01DX001 (ip), vehicle: saline
# [7] = dose: 25.0 mg/kg/injection, schedule: Q01DX009 (ip), vehicle: saline with Tween-80
# [8] = dose: 50.0 mg/kg/injection, schedule: Q01DX009 (ip), vehicle: saline with Tween-80
# [9] = dose: 100.0 mg/kg/injection, schedule: Q01DX009 (ip), vehicle: saline with Tween-80
# [10] = dose: 50.0 mg/kg/injection, schedule: Q01DX009 (ip), vehicle: saline
# [11] = dose: 100.0 mg/kg/injection, schedule: Q01DX009 (ip), vehicle: saline
# [12] = dose: 60.0 mg/kg/injection, schedule: Q01DX005 (ip), vehicle: saline with Tween-80
# [13] = dose: 120.0 mg/kg/injection, schedule: Q01DX005 (ip), vehicle: saline with Tween-80
# [14] = dose: 50.0 mg/kg/injection, schedule: Q01DX005 (ip), vehicle: saline
# [15] = dose: 100.0 mg/kg/injection, schedule: Q01DX005 (ip), vehicle: saline
# [16] = dose: 200.0 mg/kg/injection, schedule: Q01DX005 (ip), vehicle: saline
# [17] = dose: 240.0 mg/kg/injection, schedule: Q01DX005 (ip), vehicle: saline with Tween-80
structure (smiles),measurement,setting,value
CCS(=O)(=O)C(=O)N1CCN(C(=O)S(=O)(=O)CC)CC1,T/C,[1],98 % of control
same,T/C,[2],100 % of control
same,T/C,[3],106 % of control
CN(C)CCN(C)CCc1ccccn1,T/C,[4],109 % of control
same,T/C,[5],102 % of control
same,T/C,[6],105 % of control
CN(C)C1CCc2ccccc2C1OC(=O)/C=C/c1ccccc1 (stereo not given),T/C,"dose: 12.5 mg/kg/injection, schedule: Q01DX009 (ip), vehicle: saline with Tween-80",101 % of control
same,T/C,[7],106 % of control
same,T/C,[8],111 % of control
same,T/C,[9],111 % of control
O=C1c2ccccc2C(=O)N1O,T/C,[10],93 % of control
same,T/C,[11],100 % of control
CC(C)(Br)C(=O)/C=C/c1ccccc1,T/C,[12],105 % of control
same,T/C,[13],115 % of control
CCCOC(=O)/C=C(\F)C(=O)OCCC,T/C,"dose: 6.25 mg/kg/injection, schedule: Q04DX002 (ip), vehicle: saline with Tween-80",110 % of control
same,T/C,"dose: 12.5 mg/kg/injection, schedule: Q04DX002 (ip), vehicle: saline with Tween-80",116 % of control
same,T/C,"dose: 25.0 mg/kg/injection, schedule: Q04DX002 (ip), vehicle: saline with Tween-80",95 % of control
CCCCCCCCC(C)C(=O)N1CCCC1C(=O)N1C(CC(=O)CC)CC(C)CC1C(=O)NC(C)C(=O)NC(C)(C)C(=O)NC(C)(C)C(=O)NC(C(=O)NC(C)C(=O)NC(C)(C)C(=O)NC(C)(C)C(=O)NC(C)CN(C)CCO)C(C)CC (stereo not given) (X17-P[X18]A[Aib][Aib]IA[Aib][Aib]-X19; configuration not given here),T/C,"dose: 0.62 mg/kg/injection, schedule: Q01DX009 (ip), vehicle: Klucel (hydroxypropylcellulose) (HPC)",120 % of control
same,T/C,"dose: 1.25 mg/kg/injection, schedule: Q01DX009 (ip), vehicle: Klucel (hydroxypropylcellulose) (HPC)",118 % of control
same,T/C,"dose: 2.5 mg/kg/injection, schedule: Q01DX009 (ip), vehicle: Klucel (hydroxypropylcellulose) (HPC)",110 % of control
c1ccc(C23OOC(c4ccccc4)(c4ccccc42)c2ccccc23)cc1,T/C,"dose: 5.0 mg/kg/injection, schedule: Q01DX001 (ip), vehicle: Klucel (hydroxypropylcellulose) (HPC)",96 % of control
same,T/C,"dose: 10.0 mg/kg/injection, schedule: Q01DX001 (ip), vehicle: Klucel (hydroxypropylcellulose) (HPC)",96 % of control
same,T/C,"dose: 20.0 mg/kg/injection, schedule: Q01DX001 (ip), vehicle: Klucel (hydroxypropylcellulose) (HPC)",89 % of control
CCN(CC)Cc1c(C)[nH]c2ccccc2c1=O,T/C,[8],109 % of control
same,T/C,[9],118 % of control
NC1=NC(CNC(=O)c2cccc([N+](=O)[O-])c2)N(c2cccc(Cl)c2)C(N)=N1 (stereo not given),T/C,[14],100 % of control
same,T/C,[15],107 % of control
same,T/C,[16],109 % of control
CCOC(=O)CCN(Cc1ccccc1)CC(C)C(=O)OC (stereo not given),T/C,"dose: 100.0 mg/kg/injection, schedule: Q04DX003 (ip), vehicle: saline with Tween-80",100 % of control
same,T/C,"dose: 200.0 mg/kg/injection, schedule: Q04DX003 (ip), vehicle: saline with Tween-80",100 % of control
same,T/C,"dose: 400.0 mg/kg/injection, schedule: Q04DX003 (ip), vehicle: saline with Tween-80",100 % of control
CCOC(=O)CC(=O)C(OC)OC,T/C,[10],106 % of control
same,T/C,[11],105 % of control
same,T/C,"dose: 200.0 mg/kg/injection, schedule: Q01DX009 (ip), vehicle: saline",102 % of control
same,T/C,"dose: 400.0 mg/kg/injection, schedule: Q01DX009 (ip), vehicle: saline",98 % of control
O=C(Nc1ccc(Cl)cc1)Nc1nnc2nc(CC(=O)c3ccccc3)c(=O)[nH]n12,T/C,[12],98 % of control
same,T/C,[13],99 % of control
same,T/C,[17],91 % of control
CCC(C)(Oc1ccc(Cc2ccc(Cl)cc2)cc1)C(=O)OCc1cccnc1 (stereo not given),T/C,"dose: 50.0 mg/kg/injection, schedule: Q01DX009 (ip), vehicle: suspension in saline",95 % of control
same,T/C,"dose: 100.0 mg/kg/injection, schedule: Q01DX009 (ip), vehicle: suspension in saline",95 % of control
same,T/C,"dose: 200.0 mg/kg/injection, schedule: Q01DX009 (ip), vehicle: suspension in saline",94 % of control
c1ccc2c(c1)N=NN1CCCOC21 (stereo not given),T/C,[12],100 % of control
same,T/C,[13],95 % of control
same,T/C,[17],99 % of control
COc1ccc(/C(O)=C/c2nc3ccc([N+](=O)[O-])cc3[nH]c2=O)cc1,T/C,"dose: 60.0 mg/kg/injection, schedule: Q01DX005 (ip), vehicle: Klucel + Tween-80",97 % of control
same,T/C,"dose: 120.0 mg/kg/injection, schedule: Q01DX005 (ip), vehicle: Klucel + Tween-80",94 % of control
same,T/C,"dose: 240.0 mg/kg/injection, schedule: Q01DX005 (ip), vehicle: Klucel + Tween-80",95 % of control
Cc1[nH]c2ccccc2c1CCCO,T/C,[14],105 % of control
same,T/C,[15],100 % of control
same,T/C,[16],105 % of control
c1ccc(-c2nnc3ccccc3n2)cc1,T/C,[7],99 % of control
same,T/C,[8],98 % of control
same,T/C,[9],98 % of control
same,T/C,"dose: 200.0 mg/kg/injection, schedule: Q01DX009 (ip), vehicle: saline with Tween-80",93 % of control
Cc1cc(O)c2c(c1)C(=O)c1cc(O)cc(OC3OC(CO)C(O)C(O)C3O)c1C2=O (stereo not given),T/C,"dose: 5.0 mg/kg/injection, schedule: Q01DX009 (ip), vehicle: saline",105 % of control
same,T/C,"dose: 10.0 mg/kg/injection, schedule: Q01DX009 (ip), vehicle: saline",105 % of control
same,T/C,"dose: 20.0 mg/kg/injection, schedule: Q01DX009 (ip), vehicle: saline",89 % of control
CC(C)NCC(O)COc1ccc(O)c(O)c1 (stereo not given),T/C,"dose: 25.0 mg/kg/injection, schedule: Q01DX009 (ip), vehicle: saline",100 % of control
same,T/C,[11],123 % of control
O=C(Nc1ccc(Cc2ccc(NC(=O)Nc3cccnc3)cc2)cc1)Nc1cccnc1,T/C,[1],101 % of control
same,T/C,[2],94 % of control
same,T/C,[3],88 % of control
O=S1(=O)NC2CCC3NS(=O)(=O)NC4CCC(N1)N4S(=O)(=O)N23 (stereo not given),T/C,"dose: 50.0 mg/kg/injection, schedule: Q01DX005 (ip), vehicle: distilled water + alcohol",101 % of control
same,T/C,"dose: 100.0 mg/kg/injection, schedule: Q01DX005 (ip), vehicle: distilled water + alcohol",109 % of control
same,T/C,"dose: 200.0 mg/kg/injection, schedule: Q01DX005 (ip), vehicle: distilled water + alcohol",105 % of control
CC(=O)c1coc2c(c(C)nn2-c2ccccc2)c1=O,T/C,"dose: 7.5 mg/kg/injection, schedule: Q01DX005 (ip), vehicle: Klucel (hydroxypropylcellulose) (HPC)",99 % of control
same,T/C,"dose: 15.0 mg/kg/injection, schedule: Q01DX005 (ip), vehicle: Klucel (hydroxypropylcellulose) (HPC)",100 % of control
same,T/C,"dose: 30.0 mg/kg/injection, schedule: Q01DX005 (ip), vehicle: Klucel (hydroxypropylcellulose) (HPC)",100 % of control
CCC(c1ccc(O)cc1)C(CC)c1ccc(OCCN)cc1 (stereo not given),T/C,"dose: 30.0 mg/kg/injection, schedule: Q01DX005 (ip), vehicle: saline with Tween-80",111 % of control
same,T/C,[12],103 % of control and 121 % of control
same,T/C,[13],100 % of control
O=C(O)C(O)C(O)C(O)C(O)c1nn[nH]n1 (stereo not given),T/C,[4],101 % of control
same,T/C,[5],98 % of control
same,T/C,[6],93 % of control
O=C(O)C(=O)O.[NH-]CCC[NH-].[Pt+2],T/C,"dose: 0.63 mg/kg/injection, schedule: Q04DX003 (ip), vehicle: other",88 % of control
same,T/C,"dose: 2.5 mg/kg/injection, schedule: Q04DX003 (ip), vehicle: other",153 % of control
same,T/C,"dose: 5.0 mg/kg/injection, schedule: Q04DX003 (ip), vehicle: other",160 % of control
same,T/C,"dose: 6.25 mg/kg/injection, schedule: Q04DX002 (ip), vehicle: saline",158 % of control
same,T/C,"dose: 12.5 mg/kg/injection, schedule: Q04DX002 (ip), vehicle: saline",203 % of control
Clc1nnc(-c2ccccc2)s1,T/C,"dose: 25.0 mg/kg/injection, schedule: Q04DX003 (ip), vehicle: Klucel (hydroxypropylcellulose) (HPC)",100 % of control
same,T/C,"dose: 50.0 mg/kg/injection, schedule: Q04DX003 (ip), vehicle: Klucel (hydroxypropylcellulose) (HPC)",102 % of control
same,T/C,"dose: 100.0 mg/kg/injection, schedule: Q04DX003 (ip), vehicle: Klucel (hydroxypropylcellulose) (HPC)",100 % of control
Cn1cnc([N+](=O)[O-])c1Sc1ccc(Cl)cc1,T/C,"dose: 0.79 mg/kg/injection, schedule: Q01DX009 (ip), vehicle: saline with Tween-80",104 % of control
same,T/C,"dose: 1.56 mg/kg/injection, schedule: Q01DX009 (ip), vehicle: saline with Tween-80",104 % of control
same,T/C,"dose: 3.12 mg/kg/injection, schedule: Q01DX009 (ip), vehicle: saline with Tween-80",97 % of control
